We go through three compounds from patent publication US20080008704A1, “Methods of treating colorectal cancer with anti-epidermal growth factor antibodies” (priority 2001, published 2008).

Entries after “also recorded” stand apart in the source; their conditions may differ.

Common to all, as to format: in vivo, human
Data set [1] relates to metastatic colon cancer, liver metastasis. Kind of data set: Prior therapies of the Example 1 patient before C225. The settings on record: same patient. Here is the method:
(§1) A patient presented with abdominal pain and constipation. […] Pathology confirmed metastatic colon cancer which is incurable. […] Since there were no other standard treatment options their tumor was assayed for EGF receptor which was positive.

Data set [2] relates to colon cancer relapse (unresectable peritoneal disease, pulmonary metastasis). The experiment in a line: Example 2: same patient after relapse, treated again with C225 and dose reduced CPT-11, then C225 alone. The settings on record: dose reduced CPT-11 with C225. The source says:
The subsequent history of the patient described in Example 1 is as follows. […] This was resected and subsequently they received both intrahepatic and systemic chemotherapy (FUDR and CPT-11) for 6 months.

Data set [3] relates to metastatic colon cancer (EGF receptor positive). The experiment in a line: Example 1: patient with metastatic colon cancer treated with C225 and CPT-11. The settings on record: IRINOTECAN 125 mg/m^2 weekly given with C225. The protocol:
as §1
For the first two weeks, IRINOTECAN® was administered at a dose of 125 mg/m^2.

Regarding `O=C1[O][Pt]2([NH][C@@H]3CCCC[C@H]3[NH]2)[O]C1=O` [OXALOPLATIN], the “disease course on prior therapy” value in data set [1] was “further disease progression in the liver”.

Consider `CCc1c2c(nc3ccc(OC(=O)N4CCC(N5CCCCC5)CC4)cc13)-c1cc3c(c(=O)n1C2)COC(=O)[C@]3(O)CC` [IRINOTECAN], for which the “tolerability of CPT-11” value in data set [2] is listed as “discontinued secondary to toxicity”. Besides, the “disease course on prior therapy” value in data set [1] was “continued to progress in the liver”. In data set [3], the “toxicity causing IRINOTECAN dose to be held or reduced” value is given as “diarrhea; also recorded: neutropenia”. `O=c1[nH]cc(F)c(=O)[nH]1` [5-FU, 5-fluorouracil]: in data set [1], the “disease course on prior therapy” value is reported as “progressed with increasing liver metastasis”.
